Calls of active or inactive are those of the source. The calls are words filed in the database; no cut-off is given here.
Columns and labels:
[1] = tested on: HT-29; assay: Anticancer activity against human HT-29 cells assessed as inhibition of cell proliferation by MTT assay; format: functional, cell-based
[2] = tested on: HCT-116; assay: Anticancer activity against human HCT-116 cells assessed as inhibition of cell proliferation at 20 to 40 micromol/L incubated for 24 to 72 hrs by MTT assay; format: functional, cell-based; settings: dose 20-40 µmol/L, time 24-72 hrs, TDE = time-dependent effect
[3] = tested on: HCT-116; assay: Anticancer activity against human HCT-116 cells assessed as inhibition of cell proliferation by MTT assay; format: functional, cell-based
[4] = tested on: SW480; assay: Anticancer activity against human SW480 cells assessed as inhibition of cell proliferation by MTT assay; format: functional, cell-based
[5] = tested on: HCT-116; assay: Induction of cell cycle arrest in human HCT-116 cells assessed as accumulation G2/M phase at 25 micromol/L and measured after 48 hrs by propidium iodide staining based flow cytometry analysis (Rvb= 11%); format: functional; settings: dose 25 µmol/L, at 25 µM
[6] = tested on: Huh-7; assay: Anticancer activity against human Huh-7 cells assessed as inhibition of cell proliferation by MTT assay; format: functional, cell-based
[7] = tested on: HCT-116; assay: Induction of apoptosis in human HCT-116 cells assessed as retraction of the nucleus at 30 micromol/L incubated for 48 hrs by Giemsa staining based fluorescence microscopy; format: functional, cell-based; settings: dose 30.0 µmol/L
[8] = tested on: HCT-116; assay: Inhibition of cell invasion in human HCT-116 cells at 20 micromol/L and measured after 24 hrs by crystal violet staining based transwell assay; format: functional; settings: HCT-116, 24 h, dose 20 µmol/L
[9] = tested on: HCT-116; assay: Induction of apoptosis in human HCT-116 cells assessed as contraction of cell volume at 30 micromol/L incubated for 48 hrs by Giemsa staining based fluorescence microscopy; format: functional; settings: dose 30.0 µmol/L
[10] = tested on: HCT-116; assay: […] activity in human HCT-116 cells assessed as upregulation of cleaved caspase-3 level at 30 micromol/L incubated for 48 hrs by Western blot analysis; format: functional, cell-based; settings: dose 30.0 µmol/L
[11] = tested on: HCT-116; assay: Induction of ROS generation in human HCT-116 cells assessed as increase in intracellular ROS level incubated for 48 hrs by DCFH-DA staining based flow cytometric analysis (Rvb=73.65%); format: functional
[12] = tested on: HCT-116; assay: Anticancer activity against human HCT-116 cells assessed as decrease in number of colonies at 25 micromol/L and measured after 48 hrs by crystal violet dye based colony formation assay; format: functional, cell-based; settings: dose 25.0 µmol/L
[13] = tested on: RAW264.7; assay: Anti-inflammatory activity against mouse RAW264.7 cells assessed as downregulation of LPS-induced TNF-alpha level at 10 to 25 micromol/L incubated for 24 hrs in presence of LPS by ELISA; format: functional, cell-based; settings: dose 10-25 µmol/L
[14] = tested on: MGC-803; assay: Anticancer activity against human MGC-803 cells assessed as inhibition of cell proliferation by MTT assay; format: functional, cell-based
[15] = Cytotoxicity against human WI-38 cells assessed as inhibition of cell proliferation by MTT assay; format: toxicity, cell-based
[16] = tested on: SK-HEP1; assay: Anticancer activity against human SK-HEP1 cells assessed as inhibition of cell proliferation by MTT assay; format: functional, cell-based
[17] = tested on: HCT-116; assay: Induction of apoptosis in human HCT-116 cells assessed as increase in number of apoptotic cells at 30 micromol/L incubated for 48 hrs by DAPI staining based fluorescence microscopy; format: functional, cell-based; settings: dose 30.0 µmol/L
[18] = tested on: HCT-116; assay: Induction of apoptosis in human HCT-116 cells assessed as viable cells at 30 micromol/L incubated for 48 hrs by annexin V-FITC and propidium iodide staining based flow cytometry analysis (reference value: 89.29%); format: functional; settings: HCT-116, 48 h, dose 30 µmol/L, read-out: Activity
[19] = tested on: HCT-116; assay: Induction of apoptosis in human HCT-116 cells assessed as necrotic cells at 30 micromol/L incubated for 48 hrs by annexin V-FITC and propidium iodide staining based flow cytometry analysis (reference value: 0.88%); format: functional; settings: dose 30 µmol/L, at 30 µM
[20] = tested on: LoVo; assay: Anticancer activity against human LoVo cells assessed as inhibition of cell proliferation by MTT assay; format: functional, cell-based
[21] = tested on: HCT-116; assay: Inhibition of cell migration in human HCT-116 cells at 20 micromol/L and measured after 24 hrs by crystal violet staining based transwell assay; format: functional; settings: HCT-116, 24 h, dose 20 µmol/L
[22] = tested on: A549; assay: Anticancer activity against human A549 cells assessed as inhibition of cell proliferation by MTT assay; format: functional, cell-based
[23] = tested on: HCT-116; assay: Induction of apoptosis in human HCT-116 cells assessed as late apoptotic cells at 30 micromol/L incubated for 48 hrs by annexin V-FITC and propidium iodide staining based flow cytometry analysis (reference value: 7.13%); format: functional; settings: dose 30 µmol/L, at 30 µM
[24] = tested on: RKO; assay: Anticancer activity against human RKO cells assessed as inhibition of cell proliferation by MTT assay; format: functional, cell-based
[25] = tested on: HCT-116; assay: Induction of apoptosis in human HCT-116 cells assessed as unclear cell rupture edges at 30 micromol/L incubated for 48 hrs by Giemsa staining based fluorescence microscopy; format: functional; settings: dose 30.0 µmol/L
[26] = tested on: RAW264.7; assay: Anti-inflammatory activity against mouse RAW264.7 cells assessed as inhibition of LPS-induced NO production incubated for 24 hrs in presence of LPS by Griess reagent-based assay; format: functional, cell-based; settings: RAW264.7, 24 h
[27] = tested on: HCT-116; assay: Induction of apoptosis in human HCT-116 cells assessed as early apoptotic cells at 30 micromol/L incubated for 48 hrs by annexin V-FITC and propidium iodide staining based flow cytometry analysis (reference value: 2.69%); format: functional; settings: dose 30 µmol/L, at 30 µM
[28] = tested on: HCT-116; assay: Anticancer activity against human HCT-116 cells assessed as decrease in size of colonies at 25 micromol/L and measured after 48 hrs by crystal violet dye based colony formation assay; format: functional, cell-based; settings: dose 25.0 µmol/L
[29] = tested on: HCT-116; assay: Anticancer activity in human HCT-116 cells assessed as downregulation of phosphorylated STAT3 level at 30 micromol/L incubated for 48 hrs by Western blot analysis; format: functional, cell-based; settings: dose 30.0 µmol/L
[30] = tested on: HCT-116; assay: Anticancer activity against human HCT-116 cells assessed as inhibition of cell proliferation at 5 to 50 micromol/L incubated for 24 hrs by MTT assay; format: functional, cell-based; settings: dose 5-50 µmol/L, DDE = dose-dependent effect
[31] = tested on: HCT-116; assay: Induction of apoptosis in human HCT-116 cells assessed as apoptotic body formation at 30 micromol/L incubated for 48 hrs by Giemsa staining based fluorescence microscopy; format: functional, cell-based; settings: dose 30.0 µmol/L
[32] = tested on: HCT-116; assay: Induction of apoptosis in human HCT-116 cells assessed as retraction of the cytoplasm at 30 micromol/L incubated for 48 hrs by Giemsa staining based fluorescence microscopy; format: functional, cell-based; settings: dose 30.0 µmol/L
[33] = tested on: HCT-116; assay: Induction of mitochondrial membrane potential loss in human HCT-116 cells and measured after 48 hrs by TRME staining based flow cytometric analysis (reference value: 97.52%); format: functional
[34] = tested on: HCT-116; assay: […] activity in human HCT-116 cells assessed as downregulation of Bcl-2 level at 30 micromol/L incubated for 48 hrs by Western blot analysis; format: functional, cell-based; settings: dose 30.0 µmol/L
[35] = tested on: HCT-116; assay: Anticancer activity against human HCT-116 cells assessed as inhibition of cell proliferation at 20 micromol/L incubated for 24 hrs by MTT assay; format: functional; settings: HCT-116, 24 h, dose 20 µmol/L
[36] = tested on: HCT-116; assay: Anticancer activity against human HCT-116 cells assessed as inhibition of cell proliferation at 40 micromol/L incubated for 24 hrs by MTT assay; format: functional; settings: HCT-116, 24 h, dose 40 µmol/L

| Compound | IC50 [1] | inhibition [2] | IC50 [3] | IC50 [4] | Activity [5] | IC50 [6] | Activity [7] | Activity [9] | Activity [11] | Activity [12] | IC50 [14] | IC50 [15] | IC50 [16] | viability at 30 µM [18] | Activity [19] | IC50 [20] | IC50 [22] | Activity [23] | IC50 [24] | Activity [27] | further results |
| --- | --- | --- | --- | --- | --- | --- | --- | --- | --- | --- | --- | --- | --- | --- | --- | --- | --- | --- | --- | --- | --- |
| COC(=O)c1ccc(COC(=O)CC[C@@H](C)[C@H]2CC[C@H]3[C@@H]4[C@H](O)C[C@@H]5C[C@H](O)CC[C@]5(C)[C@H]4C[C@H](O)[C@]23C)cc1 | 27.2 µM | Tde | 25 µM | 31.3 µM | 89.39% | 52.1 µM | Active | Active | 91.33% | Active | 28.5 µM | > 500 µM | 41.6 µM | 23.1% | 1.19% | 28.4 µM | 51.1 µM | 74.4% | 41.2 µM | 1.33% | inhibition at 20 µM [8]: 80%; Activity [10]: Active; Activity [13]: Active; Activity [17]: Active; inhibition at 20 µM [21]: 80%; Activity [25]: Active; IC50 [26]: 20.6 µM; Activity [28]: Active; Activity [29]: Active; inhibition [30]: Dde; Activity [31]: Active; Activity [32]: Active; Activity [33]: 71.17%; Activity [34]: Active |
| O=c1[nH]cc(F)c(=O)[nH]1 [FLUOROURACIL] | 17.5 µM |  | 32.3 µM | 21.9 µM |  | 1.06 µM |  |  |  |  | 6.06 µM |  | 12.5 µM | 27.9% | 0.59% |  | 109 µM | 69.38% | 12.7 µM | 2.13% |  |
| COc1cc(COC(=O)CC[C@@H](C)[C@H]2CC[C@H]3[C@@H]4[C@H](O)C[C@@H]5C[C@H](O)CC[C@]5(C)[C@H]4C[C@H](O)[C@]23C)cc(OC)c1 | 27.9 µM | Tde | 23.7 µM | 28 µM | 89.77% | 126 µM | Active | Active | 93.87% | Active | 26.4 µM | > 500 µM | 50.7 µM | 19.5% | 1.65% | 23.1 µM | 34.6 µM | 76.88% | 31.7 µM | 2.01% | inhibition at 20 µM [35]: < 40%; inhibition at 20 µM [8]: 80%; inhibition at 40 µM [36]: 90%; Activity [13]: Active; Activity [17]: Active; inhibition at 20 µM [21]: 80%; Activity [25]: Active; IC50 [26]: 20.6 µM; Activity [28]: Active; Activity [29]: Active; inhibition [30]: Dde; Activity [31]: Active; Activity [32]: Active; Activity [33]: 70.35%; Activity [34]: Active |
| COC(=O)c1ccc(COC(=O)CC[C@@H](C)[C@H]2CC[C@H]3[C@@H]4[C@H](O)C[C@@H]5C[C@H](O)CC[C@]5(C)[C@H]4CC[C@]23C)cc1 | 29.2 µM | Tde | 28.9 µM | 36.1 µM | 63.98% | 74.8 µM | Active | Active | 85.75% | Active | 31.6 µM | > 500 µM | 49.9 µM | 34.9% | 0.89% | 28.3 µM | 121 µM | 62.13% | 44.4 µM | 2.12% | Activity [10]: Active; inhibition at 20 µM [21]: 30%; Activity [25]: Active; Activity [28]: Active; Activity [29]: Active; inhibition [30]: Dde; Activity [31]: Active; Activity [32]: Active; Activity [33]: 79.08%; Activity [34]: Active |
